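Cultured in 96-well plates, cells were exposed to test compound for 48 hours across five concentrations. At the TGI there is no net growth.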
Key:
Assay in all cases: NCI anticancer screen, dose series, 48 h
786-0 renal = tested on: 786-0 renal
A498 renal = tested on: A498 renal
A549 NSCLC = tested on: A549 NSCLC
ACHN renal = tested on: ACHN renal
CAKI-1 renal = tested on: CAKI-1 renal
CCRF-CEM leukemia = tested on: CCRF-CEM leukemia
COLO 205 colon = tested on: COLO 205 colon
DU-145 prostate = tested on: DU-145 prostate
EKVX NSCLC = tested on: EKVX NSCLC
HCC-2998 colon = tested on: HCC-2998 colon
HCT-116 colon = tested on: HCT-116 colon
HCT-15 colon = tested on: HCT-15 colon
HL-60(TB) leukemia = tested on: HL-60(TB) leukemia
HOP-62 NSCLC = tested on: HOP-62 NSCLC
HOP-92 NSCLC = tested on: HOP-92 NSCLC
HS 578T breast = tested on: HS 578T breast
HT29 colon = tested on: HT29 colon
IGROV1 ovarian = tested on: IGROV1 ovarian
K-562 leukemia = tested on: K-562 leukemia
KM12 colon = tested on: KM12 colon
LOX IMVI melanoma = tested on: LOX IMVI melanoma
M14 melanoma = tested on: M14 melanoma
MALME-3M melanoma = tested on: MALME-3M melanoma
MCF7 breast = tested on: MCF7 breast
MDA-MB-231 breast = tested on: MDA-MB-231 breast
MDA-MB-435 = tested on: MDA-MB-435
MDA-N = tested on: MDA-N
MOLT-4 leukemia = tested on: MOLT-4 leukemia
NCI-H226 lung = tested on: NCI-H226 lung
NCI-H23 lung = tested on: NCI-H23 lung
NCI-H460 lung = tested on: NCI-H460 lung
NCI-H522 lung = tested on: NCI-H522 lung
NCI/ADR-RES ovarian = tested on: NCI/ADR-RES ovarian
OVCAR-3 ovarian = tested on: OVCAR-3 ovarian
OVCAR-4 ovarian = tested on: OVCAR-4 ovarian
OVCAR-5 ovarian = tested on: OVCAR-5 ovarian
OVCAR-8 ovarian = tested on: OVCAR-8 ovarian
PC-3 prostate = tested on: PC-3 prostate
RPMI-8226 leukemia = tested on: RPMI-8226 leukemia
RXF 393 renal = tested on: RXF 393 renal
SF-268 CNS = tested on: SF-268 CNS
SF-295 CNS = tested on: SF-295 CNS
SF-539 CNS = tested on: SF-539 CNS
SK-MEL-2 melanoma = tested on: SK-MEL-2 melanoma
SK-MEL-28 melanoma = tested on: SK-MEL-28 melanoma
SK-MEL-5 melanoma = tested on: SK-MEL-5 melanoma
SK-OV-3 ovarian = tested on: SK-OV-3 ovarian
SN12C renal = tested on: SN12C renal
SNB-19 CNS = tested on: SNB-19 CNS
SNB-75 CNS = tested on: SNB-75 CNS
SR leukemia = tested on: SR leukemia
SW-620 colon = tested on: SW-620 colon
T-47D breast = tested on: T-47D breast
TK-10 renal = tested on: TK-10 renal
U251 CNS = tested on: U251 CNS
UACC-257 melanoma = tested on: UACC-257 melanoma
UACC-62 melanoma = tested on: UACC-62 melanoma
UO-31 renal = tested on: UO-31 renal

## O=C(NCCOC(=O)OCCNC(=O)NC1CCCCC1)NC1CCCCC1
786-0 renal
  TGI: > 100 µM
A498 renal
  TGI: > 100 µM
A549 NSCLC
  TGI: > 100 µM
ACHN renal
  TGI: > 100 µM
CAKI-1 renal
  TGI: > 100 µM
CCRF-CEM leukemia
  TGI: > 100 µM
COLO 205 colon
  TGI: > 100 µM
DU-145 prostate
  TGI: > 100 µM
EKVX NSCLC
  TGI: > 100 µM
HCC-2998 colon
  TGI: > 100 µM
HCT-116 colon
  TGI: > 100 µM
HCT-15 colon
  TGI: > 100 µM
HL-60(TB) leukemia
  TGI: > 100 µM
HOP-62 NSCLC
  TGI: > 100 µM
HOP-92 NSCLC
  TGI: 79 µM
HS 578T breast
  TGI: > 100 µM
HT29 colon
  TGI: > 100 µM
IGROV1 ovarian
  TGI: > 100 µM
K-562 leukemia
  TGI: > 100 µM
KM12 colon
  TGI: > 100 µM
LOX IMVI melanoma
  TGI: > 100 µM
M14 melanoma
  TGI: > 100 µM
MALME-3M melanoma
  TGI: > 100 µM
MCF7 breast
  TGI: > 100 µM
MDA-MB-231 breast
  TGI: > 100 µM
MDA-MB-435
  TGI: > 100 µM
MDA-N
  TGI: > 100 µM
MOLT-4 leukemia
  TGI: > 100 µM
NCI-H226 lung
  TGI: > 100 µM
NCI-H23 lung
  TGI: > 100 µM
NCI-H460 lung
  TGI: > 100 µM
NCI-H522 lung
  TGI: > 100 µM
NCI/ADR-RES ovarian
  TGI: > 100 µM
OVCAR-3 ovarian
  TGI: > 100 µM
OVCAR-4 ovarian
  TGI: > 100 µM
OVCAR-5 ovarian
  TGI: > 100 µM
OVCAR-8 ovarian
  TGI: > 100 µM
PC-3 prostate
  TGI: > 100 µM
RPMI-8226 leukemia
  TGI: > 100 µM
RXF 393 renal
  TGI: > 100 µM
SF-268 CNS
  TGI: > 100 µM
SF-295 CNS
  TGI: > 100 µM
SF-539 CNS
  TGI: > 100 µM
SK-MEL-2 melanoma
  TGI: > 100 µM
SK-MEL-28 melanoma
  TGI: > 100 µM
SK-MEL-5 melanoma
  TGI: > 100 µM
SK-OV-3 ovarian
  TGI: > 100 µM
SN12C renal
  TGI: > 100 µM
SNB-19 CNS
  TGI: > 100 µM
SNB-75 CNS
  TGI: > 100 µM
SR leukemia
  TGI: > 100 µM
SW-620 colon
  TGI: > 100 µM
T-47D breast
  TGI: > 100 µM
TK-10 renal
  TGI: > 100 µM
U251 CNS
  TGI: > 100 µM
UACC-257 melanoma
  TGI: > 100 µM
UACC-62 melanoma
  TGI: > 100 µM
UO-31 renal
  TGI: > 100 µM

From PubChem BioAssay (NCI)
